Measured values from patent US20070015702A1, “Method of treatment and/or prevention of neuropathic pain” (Asahi Kasei Pharma Corporation, priority 2005, published 2007).
Where two headings read alike, the source gives them in different places.

Legend:
[1] = tested on: chronic constriction injury model (CCI model); test: Continuous administration of elcatonin in CCI model, hyperalgesia, withdrawal latency (BASILE Plantar Test); type: in vivo, rat
Protocol: An apparatus measures a time (withdrawal latency) until escaping after giving nociceptive heat stimulus to a posterior limb in a rat under unrestrained condition. Right hindlimb was measured as a measurement leg. Initially, a rat was placed in an acryl box on a glass plate, and domesticated for about 5 minutes. Amoving type I.R (infrared) generator (I.R. vessel) was placed under the glass plate, and “sight” cross (I.R. irradiation position) inscribed on an upper panel of the I.R. vessel was adjusted to inside of six pads on the right hind paw. In this procedure, contact of the glass plate and hind paw was confirmed. Subsequently, a start key was pushed and heat stimulation was imparted, and withdrawal latency for escaping behavior of a rat of withdrawing limb was measured. When escaping behavior is caused, a switch is automatically turned off, and reaction time is counted. […] Measurement was carried out under clean condition so that there was no feces and no urine on the glass plate.

[2] = tested on: chronic constriction injury model (CCI model); test: Intermittent subcutaneous administration of elcatonin in CCI model, nociceptive threshold; type: in vivo, rat
Protocol: On the 12th day or later after the constriction operation, ECT or vehicle was administered subcutaneously at 0.05 ml/B.W.100 g.

[3] = tested on: chronic constriction injury model (CCI model)
Text: Under anesthesia with ether, a rat was placed in prone position, and while touching the right femur, the skin was dissected right above it. Biceps femoris was peeled at the center of the femur, and exposed by about 5 mm trying not to injure the sciatic nerve. Using 4-0 blade silk, the sciatic nerve was liegted loosely 4 times in turn from the peripheral side. Thereafter, the fascia and the skin were sutured.
Using withdrawal threshold and body weight on the 8th day after the constriction operation as indices, the rats were divided into a CCI-vehicle group (12 rats), and CCI-ECT 0.75 mU/kg/week, CCI-ECT 7.5 mU/kg/week and CCI-ECT 75 mU/kg/week groups (each 12 rats), by a randomization method (SAS system, version 8.2). […] Body weight used for administration was estimated body weight after initiation of administration and calculated by multiplying body weight at start of administration by body weight increase coefficient (1.1) obtained in the preliminary experiment. […]
First, the position of a pressure needle was controlled to confirm that an arm was horizontal to the thickness of a rat leg. […] When the rat withdrew the limb, the foot pedal was released, and a numerical value 0 to 25) of the moving matter on a scale was read. The read numerical value was multiplied by 20, to convert into pressed weight (withdrawal threshold). […]

[4] = rat, in vivo, sc
Protocol: Measurement of serum calcium value was conducted using calcium C-test wako (Wako).

[5] = Shinyaku to Rinsho, 1990, vol. 39, no. 2; cited from earlier work

dose per unit time (second) at which serum calcium value changed (serum calcium alteration threshold) [4] | Substance | extent of analgesic action across dose range ([1]; 0.00075-75 U/kg/week continuous) | analgesic action on continued administration ([1]; administration continued for 2 weeks) | analgesic action (withdrawal latency) ([1]; next day after initiation of continuous administration (12th day after operation), 0.00075, 0.0075, 0.075, 7.5, 75 U/kg/week, vs vehicle group) | analgesic action (nociceptive threshold) ([2]; 15 U/kg s.c. 3 times a week) | day after initiation of administration from which the threshold initiated to recover ([2]; 15 U/kg s.c. 5 times a week) | effect on nociceptive threshold until 3-rd day after initiation of administration ([2]; 15 U/kg s.c. intermittent, 3 or 5 times a week) | manifestation of analgesic effect ([2]; intermittent administration, dose further increased) | time after initiation of administration at which significant analgesic action was recognized ([3]; continuous s.c. administration, CCI rats) | analgesic action (nociceptive threshold) ([3]; continuous s.c. mini osmotic pump, 0.75, 7.5, 75 mU/kg/week, from 11th day after constriction operation, vs vehicle group, Williams test) | maximum effective dose of neuropathic pain treatment by continuous administration ([1]; Example 2, rat) | maximum effective dose of neuropathic pain treatment by continuous administration, in terms of second ([1]; Example 2, rat) | ratio of calcitonin dose altering serum calcium value, rat versus human [5]
 | 1-butylic acid-7-(L-2-aminobutylic acid)-26-L-aspartic acid-27-L-valine-29-L-alaninecalcitonin [elcatonin] | approximately constant | continuance of an analgesic action | significant analgesic action was confirmed in all elcatonin administration groups | a significant action was not observed | 4 days | an effect was not observed | delay of manifestation of an analgesic effect was not improved | 16 h | significant analgesic action |  |  | 
15 mU/kg/second | calcitonin |  |  |  |  |  |  |  |  |  | 75 U/kg/week | 0.124 mU/kg/second | 25 fold
